Data on 31 molecules can be found in patent publication US7709478B2, “Acylated 6,7,8,9-tetrahydro-5H-benzocycloheptenyl amines and their use as pharmaceutical agents” (sanofi-aventis Deutschland GmbH, priority 2001, dated 2010).

Counter-ions that a name gives are not always drawn.

In general, EC50 refers to the midpoint of the concentration-response curve.

For the experiment, the system named is eNOS promoter. Description: Activation of eNOS transcription (eNOS promoter-luciferase reporter gene assay). The format is cell-based, human. As to conditions: 18 h incubation; for EC50: EC50 of transcription induction ratio vs compound concentration, determined graphically, human endothelial cell line stably transfected with eNOS promoter-luciferase construct; for TIR(max) / maximal fold induction: maximum transcription induction ratio (luciferase activity with compound / solvent alone), human endothelial cell line with eNOS promoter-luciferase construct; for maximal fold induction: read-out: TIR(max). As to the method:
Measurement of Activation of eNOS Transcription
Activation of eNOS transcription was measured as described in detail in Li et al. “Activation of protein kinase C alpha and/or epsilon enhances transcription of the human endothelial nitric oxide synthase gene”, Mol. Pharmacol. 1998; 53: 630-637.
Briefly, a 3.5 kB long fragment 5′ of the starting codon of the eNOS gene was cloned, sequenced and cloned in firefly luciferase expression plasmids to monitor activation of the eNOS promoter by reporter gene activity. A human endothelial cell line stable transfected and expressing this promoter-reporter construct was used for compound testing. Cells were incubated for 18 h with compounds.
All compounds were dissolved in sterile DMSO. A final concentration of 0.5% DMSO in complete medium was allowed. Induction of reporter gene expression in these cells was measured using a standard luciferase assay system (Promega, Cat. No E150) according to the manufacturer's instructions. Luciferase induction in cells incubated with compounds were compared to those incubated with solvent alone. The ratio of both activities (transcription induction ratio, TIR) was plotted as a function of compound concentration. Typically, TIR values started at low concentrations at a ratio of 1, indicating no compound effect, and extended up to a maximum TIR value TIR(max) which indicates the increase of the eNOS transcription. EC50 values of transcription induction ratios as a function of compound concentration were determined graphically.
(In a reporter assay the amount or activity of a reporter protein is the signal.)

Consider `Cc1cc(C(=O)NC2CCCc3ccccc3C2)c(C)[nH]1` (single isomer, unassigned; (-)) [Compound 50, (−)-2,5-DIMETHYL-1H-PYRROLE-3-CARBOXYLIC ACID (6,7,8,9-TETRAHYDRO-5H-BENZOCYCLOHEPTEN-6-YL)-AMIDE], for which the half-maximal effective concentration (EC50) was 1800 nM and the “TIR(max)” value worked out at 3.

Turning to `O=C(NC1CCCc2ccccc2C1)c1nc(NCc2ccccc2)ccc1Cl` (centres unmarked) [143 B], the concentration for a half-maximal effect (EC50) amounted to 28000 nM and the “TIR(max)” value amounted to 2.5.

As for `Cc1cc(Cl)ccc1C(=O)NC1CCCc2ccccc2C1` (centres unmarked) [Compound 3, 4-CHLORO-2-METHYL-N-(6,7,8,9-TETRAHYDRO-5H-BENZOCYCLOHEPTEN-6-YL)-BENZAMIDE], the half-maximal effective concentration (EC50) is below 80 nM and the maximal fold induction amounted to 2.2.

As for `O=C(NC1CCCc2ccccc2C1)c1ccc(F)cc1Cl` (centres unmarked) [Compound 4, 2-CHLORO-4-FLUORO-N-(6,7,8,9-TETRAHYDRO-5H-BENZOCYCLOHEPTEN-6-YL)-BENZAMIDE], the EC50 was below 80 nM and the maximal fold induction worked out at 2.8.

Take `CCOc1ccc(C(=O)NC2CCCc3ccccc3C2)cc1` (centres unmarked) [Compound 5, 4-ETHOXY-N-(6,7,8,9-TETRARYDRO-5H-BENZOCYCLOHEPTEN-6-YL)-BENZAMIDE]: the EC50 was below 80 nM and the “TIR(max)” value amounted to 3.0.

For `O=C(NC1CCCc2ccccc2C1)c1ccc(F)cc1F` (centres unmarked) [Compound 6, 2,4-DIFLUORO-N-(6,7,8,9-TETRAHYDRO-5H-BENZOCYCLOHEPTEN-6-YL)-BENZAMIDE], the EC50 was below 80 nM and the maximal fold induction was determined as 3.

As for `O=C(NC1CCCc2ccccc2C1)c1ccc(Cl)nc1` (centres unmarked) [Compound 10, 6-CHLORO-N-(6,7,8,9-TETRAHYDRO-5H-BENZOCYCLOHEPTEN-6-YL)-NICOTINAMIDE], the concentration giving a half-maximal response (EC50) was 256 nM and the maximal fold induction was 3.

In the case of `Cc1ccc(C(=O)NC2CCCc3ccccc3C2)c(O)n1` (centres unmarked) [Compound 11, 2-HYDROXY-6-METHYL-N-(6,7,8,9-TETRAHYDRO-5H-BENZOCYCLOHEPTEN-6-YL)-NICOTINAMIDE], the concentration for a half-maximal effect (EC50) was determined as 2100 nM and the maximal fold induction turned out to be 2.

For `O=C(NC1CCCc2ccccc2C1)c1cccc2[nH]ccc12` (centres unmarked) [Compound 12, 1H—INDOLE-4-CARBOXYLIC ACID (6,7,8,9-TETRAHYDRO-5H-BENZOCYCLOHEPTEN-6-YL)-AMIDE], the 50% effective concentration (EC50) amounted to 136 nM and the maximal fold induction is 3.

`O=C(NC1CCCc2ccccc2C1)c1ccc2[nH]nnc2c1` (centres unmarked) [Compound 13, 1H-BENZOTRIAZOLE-5-CARBOXYLIC ACID (6,7,8,9-TETRAHYDRO-5H-BENZOCYCLOHEPTEN-6-YL)-AMIDE]: the EC50 amounted to 8800 nM and the maximal fold induction came out at 2.

For `O=C(NC1CCCc2ccccc2C1)c1cnn(-c2ccc(Cl)cc2)c1C(F)(F)F` (centres unmarked) [Compound 14, 1-(4-CHLORO-PHENYL)-5-TRIFLUOROMETHYL-1H-PYRAZOLE-4-CARBOXYLIC ACID (6,7,8,9-TETRAHYDRO-5H-BENZOCYCLOHEPTEN-6-YL)-AMIDE], the half-maximal effective concentration (EC50) was 1200 nM and the maximal fold induction is 1.7.

For `COc1ccc(C(=O)NC2CCCc3ccccc3C2)c(OC)n1` (centres unmarked) [Compound 15, 2,6-DIMETHOXY-N-(6,7,8,9-TETRAHYDRO-5H-BENZOCYCLOHEPTEN-6-YL)-NICOTINAMIDE], the EC50 turned out to be 779 nM and the maximal fold induction was determined as 3.1.

As to `Cc1ccc(C(=O)NC2CCCc3ccccc3C2)c(Cl)n1` (centres unmarked) [Compound 16, 2-CHLORO-6-METHYL-N-(6,7,8,9-TETRAHYDRO-5H-BENZOCYCLOHEPTEN-6-YL)-NICOTINAMIDE], the EC50 worked out at 38 nM and the maximal fold induction was determined as 2.9.

With `O=C(NC1CCCc2ccccc2C1)c1ccc2cc[nH]c2c1` (centres unmarked) [Compound 20, 1H—INDOLE-6-CARBOXYLIC ACID (6,7,8,9-TETRAHYDRO-5H-BENZOCYCLOHEPTEN-6-YL)-AMIDE], the half-maximal effective concentration (EC50) turned out to be 16 nM and the maximal fold induction was found to be 3.1.

Consider `N#Cc1ccc(C(=O)NC2CCCc3ccccc3C2)cn1` (centres unmarked) [Compound 21, 6-CYANO-N-(6,7,8,9-TETRAHYDRO-5H-BENZOCYCLOHEPTEN-6-YL)-NICOTINAMIDE], for which the EC50 turned out to be 8200 nM and the maximal fold induction was 2.6.

On to `O=C(NC1CCCc2ccccc2C1)c1cccc2snnc12` (centres unmarked) [Compound 22, BENZO[1,2,3]THIADIAZOLE-4-CARBOXYLIC ACID-N-(6,7,8,9-TETRAHYDRO-5H-BENZOCYCLOHEPTEN-6-YL)-AMIDE], for which the concentration for a half-maximal effect (EC50) was 83 nM and the maximal fold induction came to 3.1.

On to `Nc1ncccc1C(=O)NC1CCCc2ccccc2C1` (centres unmarked) [Compound 25, 2-AMINO-N-(6,7,8,9-TETRAHYDRO-5H-BENZOCYCLOHEPTEN-6-YL)-NICOTINAMIDE HYDROCHLORIDE], for which the EC50 turned out to be 31 nM and the maximal fold induction was 3.1.

As to `Cc1c(C(=O)NC2CCCc3ccccc3C2)cnn1-c1ccccc1` (centres unmarked) [Compound 30, 5-METHYL-1-PHENYL-1H-PYRAZOLE-4-CARBOXYLIC ACID (6,7,8,9-TETRARYDRO-5H-BENZOCYCLOHEPTEN-6-YL)-AMIDE], the EC50 stood at 20 nM and the “TIR(max)” value is on record as 3.5.

For the molecule `Cc1nc2cc(C(=O)N[C@H]3CCCc4ccccc4C3)ccc2[nH]1` [Compound 36, (S)-2-METHYL-1H-BENZOIMIDAZOLE-5-CARBOXYLIC ACID (6,7,8,9-TETRAHYDRO-5H-BENZOCYCLOHEPTEN-6-YL)-AMIDE HYDROCHLORIDE], the EC50 stood at 50 nM and the maximal fold induction came to 3.3.

On to `Cc1cc(C)c(C(=O)NC2CCCc3ccccc3C2)c(N)n1` (centres unmarked) [Compound 56, 2-AMINO-4,6-DIMETHYL-N-(6,7,8 9-TETRAHYDRO-5H-BENZOCYCLOHEPTEN-6-YL)-NICOTINAMIDE], for which the EC50 is 168 nM and the “TIR(max)” value amounted to 3.

As to `Cc1nc(C)c(C(=O)NC2CCCc3ccccc3C2)o1` (centres unmarked) [Compound 58, 2,4-DIMETHYL-OXAZOLE-5-CARBOXYLIC ACID (6,7,8,9-TETRAHYDRO-5H-BENZOCYCLOHEPTEN-6-YL)-AMIDE], the concentration for a half-maximal effect (EC50) was found to be 19000 nM and the maximal fold induction was 2.5.

`Cc1cnc(C(=O)NC2CCCc3ccccc3C2)c(N)n1` (centres unmarked) [Compound 59, 3-AMINO-5-METHYL-PYRAZINE-2-CARBOXYLIC ACID (6,7,8,9-TETRAHYDRO-5H-BENZOCYCLOHEPTEN-6-YL)-AMIDE]: the 50% effective concentration (EC50) was 19 nM and the maximal fold induction stood at 3.2.

Take `Nc1c(C(=O)NC2CCCc3ccccc3C2)cnn1-c1ccccc1` (centres unmarked) [Compound 61, 5-AMINO-1-PHENYL-1H-PYRAZOLE-4-CARBOXYLIC ACID (6,7,8,9-TETRAHYDRO-5H-BENZOCYCLOHEPTEN-6-YL)-AMIDE]: the EC50 is 2300 nM and the maximal fold induction was determined as 3.4.

As for `O=C(NC1CCCc2ccccc2C1)c1cnc(N2CCOCC2)nc1` (centres unmarked) [Compound 64, 2-MORPHOLIN-4-YL-PYRIMIDINE-5-CARBOXYLIC ACID (6,7,8,9-TETRAHYDRO-5H-BENZOCYCLOHEPTEN-6-YL)-AMIDE], the concentration for a half-maximal effect (EC50) came out at 16000 nM and the maximal fold induction came to 3.1.

As to `O=C(NC1CCCc2ccccc2C1)c1ccc(Cl)nc1Cl` (centres unmarked) [Compound 70, 2,6-DICHLORO-N-(6,7,8,9-TETRAHYDRO-5H-BENZOCYCLOHEPTEN-6-YL)-NICOTINAMIDE], the EC50 turned out to be 2000 nM and the maximal fold induction came out at 3.1.

Turning to `Cc1nc(N)c(C(=O)NC2CCCc3ccccc3C2)nc1C` (centres unmarked) [Compound 72, 3-AMINO-5,6-DIMETHYL-PYRAZINE-2-CARBOXYLIC ACID (6,7,8,9-TETRAHYDRO-5H-BENZOCYCLOHEPTEN-6-YL)-AMIDE], the EC50 came out at 71 nM and the maximal fold induction was 3.1.

`CCSc1ncc(C(=O)NC2CCCc3ccccc3C2)c(N)n1` (centres unmarked) [Compound 74, 4-AMINO-2-ETHYLSULFANYL-PYRIMIDINE-5-CARBOXYLIC ACID (6,7,8,9-TETRAHYDRO-5H-BENZOCYCLOHEPTEN-6-YL)-AMIDE]: the EC50 turned out to be 34000 nM and the maximal fold induction came out at 3.1.

On to `CNc1cncc(C(=O)NC2CCCc3ccccc3C2)n1` (centres unmarked) [Compound 76, 6-METHYLAMINO-PYRAZINE-2-CARBOXYLIC ACID (6,7,8,9-TETRAHYDRO-5H-BENZOCYCLOHEPTEN-6-YL)-AMIDE], for which the EC50 turned out to be 572 nM and the maximal fold induction came out at 3.1.

For `CN(C)c1ccc(C(=O)NC2CCCc3ccccc3C2)cn1` (centres unmarked) [Compound 81, 6-DIMETHYLAMINO-N-(6,7,8,9-TETRAHYDRO-5H-BENZOCYCLOHEPTEN-6-YL)-NICOTINAMIDE], the EC50 was 53 nM and the maximal fold induction worked out at 3.3.

For `O=C(NC1CCCc2ccccc2C1)c1ccc(N2CCCC2)nc1` (centres unmarked) [Compound 82, 6-PYRROLIDIN-1-YL-N-(6,7,8,9-TETRARYDRO-5H-BENZOCYCLOHEPTEN-6-YL)-NICOTINAMIDE], the 50% effective concentration (EC50) turned out to be 283 nM and the “TIR(max)” value was found to be 3.2.

For `O=C(NC1CCCc2ccccc2C1)c1cn2ccccc2n1` (centres unmarked) [Compound 85, IMIDAZO[1,2-A]PYRIDINE-2-CARBOXYLIC ACID (6,7,8,9-TETRAHYDRO-5H-BENZOCYCLOHEPTEN-6-YL)-AMIDE], the concentration for a half-maximal effect (EC50) is 15000 nM and the maximal fold induction was determined as 3.
